Source: article PMC4821887, “Identification of chemicals that mimic transcriptional changes associated with autism, brain aging and neurodegeneration” (Nature Communications, 2016)
Like-named read-outs stand apart in the source and are kept apart here.

What was measured:
[1] = system: mouse cortical neuron-enriched cultures; assay: RNA-seq transcriptional screen with hierarchical clustering and cluster membership; assay type: cell-based; settings: for Chemical cluster assigned by gene expression: 24 h at non-toxic concentration, hierarchical clustering of 5,121 variably expressed genes; for Transcriptional change relative to the cluster 2 signature: RNA-seq, Supplementary Fig. 9
Experimental: Cultures were treated with the non-cytotoxic dose of each chemical, by exchanging half of the original medium with chemicals at 2 × concentration in prewarmed feeding medium, on DIV 7 for 24 h in 12-well plates at a density of 5 × 10^5 cells per well. RNA was isolated using RNeasy plus mini kit (Cat. #74134, Qiagen). RNA yield and quality were determined using a Nanodrop 1000 Spectrophotometer (Thermo Scientific). Samples were further assessed for quality using either an Agilent Bioanalyzer 2100 or TapeStation 2200 to obtain a RIN. RIN values exceeding 7 were used for sequencing. RNA samples were used to generate and barcode complementary DNA libraries using the TruSeq RNA Library Preparation Kit at the UNC High Throughput Sequencing Facility. Pools of 24 multiplexed samples were sequenced per lane on an Illumina HiSeq 2500 using 50-bp paired-end reads.
RNA-seq reads were filtered using TagDust and aligned to the reference mouse genome (mm9) with TopHat using default parameters. Reads aligning to ribosomal RNA genes were removed. Transcript abundance was estimated by computing Reads per kilobase per million mapped reads (RPKM) using RefSeq gene models aggregated by gene symbol. For differential expression analyses, raw counts over RefSeq exons were used, and then were compared across samples using DESeq[62].
RPKMs for all RefSeq genes and all samples were filtered such that a given gene had >90% of samples with RPKM >0 and gene length exceeded 500 bp. RPKMs were then log10-transformed, quantile-normalized, median-centred, and the effects due to culture or sequencing batch were removed using a mixed model analysis of variance. This batch correction step was performed on individual experiments rather than chemical–vehicle ratios to reduce the effects due to variations in culture composition as well as batch-to-batch variations at the level of sequencing. Genes were then median-centred again, and filtered such that their s.d. exceeded 0.1. Chemical replicates were then combined using the median. Classes of chemicals were then discovered in two ways. First, we performed hierarchical clustering using average linkage and Pearson correlation distance measures. The boundaries of the discovered classes from clustering were set by computing pairwise Spearman correlations for all samples. A given cluster had to have at least three members with the minimum pairwise Spearman correlation coefficient exceeding 0.2, though cluster members often exceeded a correlation of 0.6 (Supplementary Fig. 5c,d). Seven chemical clusters were discovered, however one was removed due to failing to have a positive silhouette width, a metric of cluster robustness. These definitions enabled the three positive control topoisomerase inhibitors to form a cohesive group of chemicals with known structural and functional similarity (cluster 5). None of the culture or sequencing batches contributed to the formation of any one of the final six clusters (Supplementary Fig. 4).

[2] = system: mouse cortical neuron cultures
[3] = system: mitochondrial superoxide in cortical neurons; assay: Mitochondrial superoxide detection (MitoSOX Red live-cell imaging); assay type: cell-based, mouse; settings: for O2− production at the sequencing concentration: seven-point concentration-response, Supplementary Fig. 8
cortical neurons = assay: Soma morphology (proportion of cells with altered soma morphology) in live-cell imaging; assay type: cell-based, mouse; settings: pretreatment 10 μM, 2 h; fenamidone 10 μM
purified tubulin = assay: Tubulin polymerization assay (cell-free, BK011P); assay type: biochemical; settings: 37 °C, fluorescence over 60 min, equimolar doses

C[C@@]1(c2ccc(Oc3ccccc3)cc2)OC(=O)N(Nc2ccccc2)C1=O (racemic) [famoxadone]
Chemical cluster assigned by gene expression [1]: cluster 2 | % Dead cells (vehicle subtracted) [2]: 1.213%

CO/N=C(/C1=NOCCO1)c1ccccc1Oc1ncnc(Oc2ccccc2Cl)c1F [Fluoxastrobin, fluoxastrobin]
Chemical cluster assigned by gene expression [1]: not assigned to cluster 2 | O2− production at the sequencing concentration [3]: did not generate

CCC(C)(C)C(=O)OC1=C(c2ccc(Cl)cc2Cl)C(=O)OC12CCCCC2 [Spirodiclofen]
% Dead cells (vehicle subtracted) [2]: 1.699%

CCCN(CC)CC1COC2(CCC(C(C)(C)C)CC2)O1 (stereo not shown) [Spiroxamine]
% Dead cells (vehicle subtracted) ([2]; mouse, 24 h, 10 µM): 7.8727%

Cc1nn(-c2cc(NS(C)(=O)=O)c(Cl)cc2Cl)c(=O)n1C(F)F [Sulfentrazone]
% Dead cells (vehicle subtracted) ([2]; mouse, 24 h, 10 µM): -1.513%

O=c1n(Cl)c(=O)n(Cl)c(=O)n1Cl [Symclosene (Trichloro-s-triazinetrione)]
% Dead cells (vehicle subtracted) [2]: 4.474%

CCc1ccc(C(=O)NN(C(=O)c2cc(C)cc(C)c2)C(C)(C)C)cc1 [Tebufenozide]
% Dead cells (vehicle subtracted) [2]: -1.661%

CCOP(=S)(Oc1cnc(C(C)(C)C)nc1)OC(C)C (stereo not shown) [Tebupirimfos]
% Dead cells (vehicle subtracted) [2]: 0.1923%

CNC(=O)N(C)c1nnc(C(C)(C)C)s1 [Tebuthiuron]
% Dead cells (vehicle subtracted) [2]: -0.9604%

Cc1[nH]c(=O)n(C(C)(C)C)c(=O)c1Cl [Terbacil]
% Dead cells (vehicle subtracted) ([2]; mouse, 24 h, 10 µM): 6.548%

FC(F)C(F)(F)OCC(Cn1cncn1)c1ccc(Cl)cc1Cl (stereo not shown) [Tetraconazole]
% Dead cells (vehicle subtracted) ([2]; mouse, 24 h, 10 µM): 2.833%

CC(C)=CC1C(C(=O)OCN2C(=O)C3=C(CCCC3)C2=O)C1(C)C (stereo not shown) [Tetramethrin]
% Dead cells (vehicle subtracted) [2]: -2.018%

c1ccc2[nH]c(-c3cscn3)nc2c1 [Thiabendazole]
% Dead cells (vehicle subtracted) ([2]; mouse, 24 h, 10 µM): -3.658%

N#C/N=C1\SCCN1Cc1ccc(Cl)nc1 [Thiacloprid]
% Dead cells (vehicle subtracted) [2]: 2.238%

CN1COCN(Cc2cnc(Cl)s2)/C1=N\[N+](=O)[O-] [Thiamethoxam]
% Dead cells (vehicle subtracted) [2]: 1.407%

COC(=O)c1c(C(F)F)nc(C(F)(F)F)c(C2=NCCS2)c1CC(C)C [Thiazopyr]
% Dead cells (vehicle subtracted) [2]: 1.196%

CCN(CC)C(=O)SCc1ccc(Cl)cc1 [Thiobencarb]
% Dead cells (vehicle subtracted) ([2]; mouse, 24 h, 10 µM): -1.522%

CCOC(=O)NC(=S)Nc1ccccc1NC(=S)NC(=O)OCC [Thiophanate]
% Dead cells (vehicle subtracted) ([2]; mouse, 24 h, 10 µM): -1.666%

CN(C)C(=S)SSC(=S)N(C)C [Thiram]
% Dead cells (vehicle subtracted) [2]: 0.7821%

CCO/N=C(\CC)C1=C(O)CC(c2c(C)cc(C)cc2C)CC1=O (stereo not shown) [Tralkoxydim]
% Dead cells (vehicle subtracted) [2]: 4.508%

CC(C)N(C(=O)SCC(Cl)=C(Cl)Cl)C(C)C [Tri-allate]
% Dead cells (vehicle subtracted) [2]: 1.844%

CC(C)(C)C(=O)C(Oc1ccc(Cl)cc1)n1cncn1 (stereo not shown) [Triadimefon]
% Dead cells (vehicle subtracted) [2]: -0.7492%

CC(C)(C)C(O)C(Oc1ccc(Cl)cc1)n1cncn1 (stereo not shown) [Triadimenol]
% Dead cells (vehicle subtracted) ([2]; mouse, 24 h, 10 µM): 2.51%

COC(=O)c1ccccc1S(=O)(=O)NC(=O)N(C)c1nc(C)nc(OC)n1 [Tribenuron-methyl]
% Dead cells (vehicle subtracted) ([2]; mouse, 24 h, 10 µM): -1.861%

CCCCSP(=O)(SCCCC)SCCCC [Tribufos]
% Dead cells (vehicle subtracted) [2]: -0.3794%

COP(=O)(OC)C(O)C(Cl)(Cl)Cl (stereo not shown) [Trichlorfon]
% Dead cells (vehicle subtracted) [2]: 2.414%

O=C(O)COc1nc(Cl)c(Cl)cc1Cl [Triclopyr]
% Dead cells (vehicle subtracted) [2]: -0.8572%

Oc1cc(Cl)ccc1Oc1ccc(Cl)cc1Cl [Triclosan]
% Dead cells (vehicle subtracted) [2]: 0.6048%

COc1cc(OC)nc(NC(=O)[N-]S(=O)(=O)c2ncccc2OCC(F)(F)F)n1.[Na+] [Trifloxysulfuron-sodium]
% Dead cells (vehicle subtracted) [2]: 0.5929%

CCCOC/C(=N\c1ccc(Cl)cc1C(F)(F)F)n1ccnc1 [Triflumizole]
% Dead cells (vehicle subtracted) ([2]; mouse, 24 h, 10 µM): 1.241%

CCCN(CCC)c1c([N+](=O)[O-])cc(C(F)(F)F)cc1[N+](=O)[O-] [Trifluralin]
% Dead cells (vehicle subtracted) [2]: 0.2689%

CC1(C)CCC(=Cc2ccc(Cl)cc2)C1(O)Cn1cncn1 (stereo not shown) [Triticonazole]
% Dead cells (vehicle subtracted) ([2]; mouse, 24 h, 10 µM): 0.8709%

C=CC1(C)OC(=O)N(c2cc(Cl)cc(Cl)c2)C1=O (stereo not shown) [Vinclozolin]
% Dead cells (vehicle subtracted) ([2]; mouse, 24 h, 10 µM): -1.854%

CO/C=C(/C(=O)OC)c1ccccc1Oc1cc(Oc2ccccc2C#N)ncn1 [azoxystrobin]
Chemical cluster assigned by gene expression [1]: not assigned to cluster 2 | O2− production at the sequencing concentration [3]: did not generate

Cc1nn(C)c(Oc2ccccc2)c1C=NOCc1ccc(C(=O)OC(C)(C)C)cc1 [fenpyroximate]
Chemical cluster assigned by gene expression [1]: cluster 2 | EC50 ([3]; Mus musculus, Cortical neurone, read-out: Superoxide production, concentration for half-maximum response (EC50)): 7 nM

CO/N=C(/C(=O)OC)c1ccccc1COc1ccccc1C [kresoxim-methyl]
Transcriptional change relative to the cluster 2 signature [1]: altered transcription in a manner consistent with chemicals in cluster 2

CO/C(=C/C(N)=O)[C@H](C)[C@H](/C=C/c1csc(-c2csc([C@@H](C)/C=C/C=C/C(C)C)n2)n1)OC [myxothiazol, reference compound]
Transcriptional change relative to the cluster 2 signature [1]: altered transcription in a manner consistent with chemicals in cluster 2

CC(=O)O[C@H]1C(=O)[C@@]2(C)[C@H]([C@H](OC(=O)c3ccccc3)[C@]3(O)C[C@H](OC(=O)[C@H](O)[C@@H](NC(=O)c4ccccc4)c4ccccc4)C(C)=C1C3(C)C)[C@]1(OC(C)=O)CO[C@@H]1C[C@@H]2O [paclitaxel, Paclitaxel]
Effect of pretreatment on fenamidone-induced O2− production ([3]; pretreatment 10 μM, 2 h, fenamidone 10 μM): attenuated | Effect of pretreatment on fenamidone-induced soma swelling / aberrant morphology (cortical neurons): attenuated | Effect on tubulin polymerization (purified tubulin): promoted

CC(C)(C)c1ccc(CSc2cnn(C(C)(C)C)c(=O)c2Cl)cc1 [pyridaben]
Chemical cluster assigned by gene expression [1]: cluster 2

CON=C(C(=O)OC)c1ccccc1CON=C(C)c1cccc(C(F)(F)F)c1 [trifloxystrobin]
Chemical cluster assigned by gene expression [1]: cluster 2 | % Dead cells (vehicle subtracted) ([2]; mouse, 24 h, 10 µM): 7.404%

Abamectin
% Dead cells (vehicle subtracted) [2]: 4.666%

Chlorpyrifos oxon
% Dead cells (vehicle subtracted) [2]: 0.8087%

Mancozeb
% Dead cells (vehicle subtracted) [2]: 1.017%

Metiram-zinc
% Dead cells (vehicle subtracted) [2]: -0.5751%

Milbemectin
% Dead cells (vehicle subtracted) [2]: 1.383%
